Test results published in patent US8486957B2, “Chemotherapeutic for inducing an MSH2-dependent apoptotic pathway” (Wake Forest University Health Sciences, priority 2007, dated 2013).
Read-outs that look alike come from different tables or passages of the source.

Legend:
[1] = system: MSH2-deficient HEC59 cells; experiment: Cell viability (MTS) assay, MSH2-deficient cells; assay type: cell-based, human; settings: for IC50 / MSH2 dependence of cell death response (words): 24 h exposure; for Fold difference: IC50 MSH2-deficient vs MSH2-proficient cells, 24 h; for MSH2 dependence of cell death response (words): MSH2-deficient vs -proficient cells; for induction of cell death: MSH2-deficient cells
Protocol: (§1) Cells proficient and deficient in MSH2 were exposed to increasing concentrations of the drugs and cell survival determined in an MTS assay. This assay is based on the mitochondrial activity of living cells that reduces the tetrazolium product (MTS) into a formazan product that can be spectrophotometrically analyzed at OD490.
(§2) Cell Viability assays. HEC59 cells and their isogenic counterpart with chromosome 2 transfer were grown in standard growth media of DMEM-F12+10% FBS. Cells were plated in 96 well plates at an appropriate concentration in 100 μl media and incubated overnight. Media was replaced with fresh media containing drug and allowed to incubate for 24 hrs at indicated concentrations. Untreated cells received fresh media containing 0.1% DMSO. One solution reagent (CellTiter 96(r) AQueous One Solution) is added to existing media (20 μl/well) and allowed to incubate 3-4 hrs. A plate reader was used to record the absorbance at 490 nm.
(§3) The CellTiter 96® AQueous One Solution Cell Proliferation Assay® is a colorimetric method for determining the number of viable cells in proliferation, cytotoxicity or chemosensitivity assays. The CellTiter 96® AQueous One Solution Reagent contains a tetrazolium compound [3-(4,5-dimethylthiazol-2-yl)-5-(3-carboxymethoxyphenyl)-2-(4-sulfophenyl)-2H-tetrazolium, inner salt; MTS] and an electron coupling reagent (phenazine ethosulfate; PES). PES has enhanced chemical stability, which allows it to be combined with MTS to form a stable solution. The quantity of formazan product as measured by the amount of 490 nm absorbance is directly proportional to the number of living cells in culture.
(§4) Dose-dependent response to nineteen increasing concentrations of the respective compound was determined, and analyzed for IC50 values using GraphPad Prism 4™. Each compound was analyzed in triplicates.

[2] = system: MSH2-proficient HEC59 cells with chromosome 2 transfer (HEC59 chr.2); experiment: Cell viability (MTS) assay, MSH2-proficient cells; assay type: cell-based, human; settings: for IC50: 24 h exposure; for induction of cell death: MSH2-proficient cells
Protocol: as §1, §2, §3, §4

[3] = system: MSH2-deficient HEC59 cells; settings: 48-72 hours after first exposure; cited from earlier work
A2780cis cells = experiment: MTS assay, platinum resistant ovarian cancer cells; assay type: cell-based; settings: for cell killing: 10 uM cisplatin, 20 uM rescinnamine, lisinopril
Protocol: (§5) A2780 is a cisplatinum-sensitive ovarian cancer cell line, […] its isogenic, but cisplatinum-resistant counterpart. Shown are average and standard deviations of a minimum of 3 individual experiments. Results were normalized to the untreated control. FIG. 5: MTS assays of platinum sensitive (A2780) and resistant (A2780cis) cells in the presence of 10 uM cisplatinum and increasing concentrations of rescinnamine. FIG. 6: MTS assay of A2780 and A2780cis ovarian cancer cells, untreated, treated with 10 uM cisplatin, 20 uM rescinnamine and lisinopril.

A2780 cells = experiment: MTS assay, platinum sensitive ovarian cancer cells; assay type: cell-based; settings: for cell killing: 10 uM cisplatin, 20 uM rescinnamine, lisinopril
Protocol: as §5

RKO oxa cells = experiment: MTS assay, oxaliplatin insensitive colorectal cancer cells; assay type: cell-based
Source text: FIG. 7: MTS assay of colorectal cancer cells sensitive (RKO) and insensitive (RKO oxa) to oxaliplatin, treated with oxaliplatin, rescinnamine and combination.

[4] = system: MSH2/6-dependent cell death; experiment: Caspase-3-dependent cell death assay; assay type: cell-based
[5] = Homo sapiens, MTS, read-out: IC50 MSH2-deficient
[6] = Homo sapiens, read-out: IC50 in MSH2-deficient cells
[7] = Homo sapiens, MTS, read-out: IC50 MSH2-proficient
[8] = Homo sapiens, read-out: IC50 in MSH2-proficient cells
[9] = in the presence of 10 uM cisplatinum

Molecule	IC50 [1, 5] [µM]	Fold difference [1]	MSH2 dependence of cell death response (words) [1]	IC50 [2, 7] [µM]	IC50 [2, 8] [µM]	further results
COC(=O)[C@H]1[C@H]2C[C@@H]3c4[nH]c5cc(OC)ccc5c4CCN3C[C@H]2C[C@@H](OC(=O)c2ccc(OC)c(OC)c2)[C@@H]1OC [3,4-dimethoxy benzoyl, 3,4-Dimethoxybenzoyl reserpine]	85	1.3	significant MSH2-dependent cell death response	66	66	IC50 [1, 6]: 85 µM
COC(=O)[C@H]1[C@H]2C[C@@H]3c4[nH]c5cc(OC)ccc5c4CCN3C[C@H]2C[C@@H](OC(=O)c2cc(OC)cc(OC)c2)[C@@H]1OC [3,5-dimethoxy benzoyl, 3,5-Dimethoxybenzoyl reserpine]	36	0.95		38		
COC(=O)[C@H]1[C@H]2C[C@@H]3c4[nH]c5cc(OC)ccc5c4CCN3C[C@H]2C[C@@H](OC(=O)c2cccc(OC)c2)[C@@H]1OC [3-methoxy benzoyl, 3-Methoxybenzoyl reserpine]	83	0.94		88		
COC(=O)[C@H]1[C@H]2C[C@@H]3c4[nH]c5cc(OC)ccc5c4CCN3C[C@H]2C[C@@H](OC(=O)c2ccc(OC)cc2)[C@@H]1OC [4-methoxy benzoyl, 4-Methoxybenzoyl reserpine]	68	1.01		67		
COC(=O)[C@H]1[C@H]2C[C@@H]3c4[nH]c5cc(OC)ccc5c4CCN3C[C@H]2C[C@@H](OC(=O)c2ccccc2)[C@@H]1OC [MJG-6-41, Benzoyl resperine]	110	0.83		132		
COC(=O)[C@H]1[C@H]2C[C@@H]3c4[nH]c5cc(OC)ccc5c4CCN3C[C@H]2C[C@@H](O)[C@@H]1OC [Methyl Reserpate, Methyl reserpate]			no preference for either cell line			induction of cell death [1]: only weakly induces cell death; induction of cell death [2]: only weakly induces cell death
COC(=O)[C@H]1[C@H]2C[C@@H]3c4[nH]c5cc(OC)ccc5c4CCN3C[C@H]2C[C@@H](OC(=O)/C=C/c2ccccc2)[C@@H]1OC [cinnamoyl reserpine, Cinnamyl reserpine]	150	1.2	independent of functional MSH2	130	130	IC50 [1, 6]: 150 µM
N.N.[Cl][Pt][Cl] [cisplatin]		1.6	only a weak difference			IC50 ([1]; MTS, read-out: IC50 MSH2-deficient): 75 µM; increase in resistance in MSH2-deficient cells, late response [3]: two- to four-fold increase in resistance; IC50 ([2]; MTS, read-out: IC50 MSH2-proficient): 47 µM
COC(=O)[C@H]1[C@H]2C[C@@H]3c4[nH]c5ccccc5c4CCN3C[C@H]2C[C@@H](OC(=O)c2cc(OC)c(OC)c(OC)c2)[C@@H]1OC [deserpidine]	59	1.2	no significant specificity for the presence of MSH2	48	49	IC50 [1, 6]: 56 µM
NCCCC[C@H](N[C@@H](CCc1ccccc1)C(=O)O)C(=O)N1CCC[C@H]1C(=O)O [lisinopril]						cell killing (A2780cis cells): does not show the same effect; cell killing (A2780 cells): does not show the same effect
COC(=O)[C@H]1[C@H]2C[C@@H]3c4[nH]c5cc(OC)ccc5c4CCN3C[C@H]2C[C@@H](OC(=O)c2ccc3c(c2)OCO3)[C@@H]1OC [methylendioxy-benzoyl, 3,4-Methylenedioxy benzoyl reserpine]	36	0.71	MSH2-deficient cells show a higher sensitivity	51	51	IC50 [1, 6]: 36 µM
COC(=O)[C@H]1[C@H]2C[C@@H]3c4[nH]c5cc(OC)ccc5c4CCN3C[C@H]2C[C@@H](OC(=O)/C=C/c2cc(OC)c(OC)c(OC)c2)[C@@H]1OC [rescinnamine]	87	2.6	robust MSH2-dependent cell death response	39	39	cell killing (A2780cis cells): overcoming cisplatinum resistance; cell death with increasing concentrations of rescinnamine (A2780cis cells; [9]): concentration-dependent, significant cell death; cell killing (A2780 cells): more effective in sensitive ovarian cancer cells than cisplatinum; cell death with increasing concentrations of rescinnamine (A2780 cells; [9]): concentration-dependent, significant cell death; overcoming oxaliplatin resistance (RKO oxa cells): overcomes oxaliplatin resistance, albeit not to the same extent as cisplatinum resistance; MSH2-dependent induction of cell death relative to reserpine [2]: roughly 2 fold; induction of MSH2/6-dependent cell death [4]: induces the targeted, MSH2/6-dependent cell death
COC(=O)[C@H]1[C@H]2C[C@@H]3c4[nH]c5cc(OC)ccc5c4CCN3C[C@H]2C[C@@H](OC(=O)c2cc(OC)c(OC)c(OC)c2)[C@@H]1OC [reserpine]	93	1.5	robust MSH2-dependent cell death response	61	61	MSH2 dependence of cell death response (words) ([1]; listed as Reserpine): significant increase in resistance
Evodiamine						induction of cell death [1]: no significant cytotoxic effect; induction of cell death [2]: no significant cytotoxic effect
